Structures can show the parent of a compound that is named as a salt.

The target of the experiment is T1, guinea-pig B2 receptor (Cavia porcellus, UniProt O70526).
T1 construct: Ileum segments are isolated from male guinea-pigs; tissue Iffa Credo, l'Arbresle, France (animals); host or cells: ileum membranes of male Dunkin-Hartley guinea-pigs
T1 sequence (O70526 1-372): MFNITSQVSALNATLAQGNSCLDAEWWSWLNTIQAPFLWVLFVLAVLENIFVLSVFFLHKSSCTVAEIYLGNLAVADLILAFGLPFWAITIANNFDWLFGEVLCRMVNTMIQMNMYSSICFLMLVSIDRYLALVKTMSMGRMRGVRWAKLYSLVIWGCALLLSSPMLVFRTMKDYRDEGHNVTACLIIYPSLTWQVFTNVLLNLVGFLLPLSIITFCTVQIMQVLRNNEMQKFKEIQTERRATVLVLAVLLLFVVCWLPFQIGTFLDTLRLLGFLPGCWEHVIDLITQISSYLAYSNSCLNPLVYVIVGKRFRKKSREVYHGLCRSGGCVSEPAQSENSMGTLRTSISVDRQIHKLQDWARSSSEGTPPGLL
As to the kind of experiment: Inhibition of [3H]-bradykinin binding to guinea-pig ileum membranes. The conditions noted are these: test compound at 10^-6 M, [3H]-bradykinin 120 pM, 90 min at 20° C., read-out: Activity (percentage inhibition of the binding of [3H]-bradykinin). How it is done:
The following pharmacological test is used: Ileum segments are isolated from male guinea-pigs [of the Dunkin-Hartley strain (Iffa Credo, l'Arbresle, France)] and ground in the following TES buffer: TES 25 mM, 1,10-phenanthroline 1 mM (pH 6.8), bacitracin 140 μg/ml, BSA 1 g/l. The membranes are then isolated by centrifugation (18,000 rpm; 20 min; 4° C.). The binding studies are carried out in this TES buffer using [^3 H]-bradykinin (120 pM) and 50 μg of membrane protein per test (final volume 500 μl) with an equilibrium time of 90 min at 20° C. The percentage inhibition of the binding of [^3 H]-bradykinin is then determined in the presence of one of the test compounds according to the invention at a concentration of 10^-6 M.
The results obtained from these tests (shown as "activity") are collated in Table I below with reference to the Examples given in the description. In this Table, Pos indicates the position of the amidine group on the aromatic (or heteroaromatic) ring relative to the group B; in the "Salt" column, Ch1 denotes that the compound is in the form of the hydrochloric acid salt and Ms denotes that it is in the form of the methanesulfonic acid salt.
As for `Cc1cc(C)c2cccc(OCc3c(Cl)ccc(S(=O)(=O)N4CCC[C@H]4C(=O)NCCCN(C)C(=O)c4ccc(C(=N)N)cc4)c3Cl)c2n1` [Example 16, 1-[[3-[(2,4-Dimethylquinolin-8-yl)oxymethyl]-2,4-dichlorophenyl]sulfonyl]-N-[3-[[methyl]-[[4(aminoiminomethyl)phenyl]carbonyl]amino]propyl]-2(S)-pyrrolidinecarboxamide dihydrochloride], the inhibition at 1 µM is 100%.

Take `Cc1cc(C)c2cccc(OCc3c(Cl)ccc(S(=O)(=O)N4CCC[C@H]4C(=O)NCCCNC(=O)COc4ccc(C(=N)N)cc4)c3Cl)c2n1` [Example 10, 1-[[3-[(2,4-Dimethylquinolin-8-yl)oxymethyl]-2,4-dichlorophenyl]sulfonyl]-N-[3-[[2-[4-(aminoiminomethyl)phenoxy]-1-oxoethyl]amino]propyl]-2(S)-pyrrolidinecarboxamide dihydrochloride]: the inhibition at 1 µM is 98.8%.

Take `Cc1cc(C)c2cccc(OCc3c(Cl)ccc(S(=O)(=O)N4CCC[C@H]4C(=O)NCCCNC(=O)c4ccc(C(=N)N)cc4)c3Cl)c2n1` [Example 6, 1-[[3-[(2,4-Dimethylquinolin-8-yl)oxymethyl]-2,4-dichlorophenyl]sulfonyl]-N-[3-[[4-(aminoiminomethyl)phenyl]carbonylamino]propyl]-2(S)-pyrrolidine-carboxamide dihydrochloride]: the inhibition at 1 µM was 99%. To `Cc1cc(C)c2cccc(OCc3c(Cl)ccc(S(=O)(=O)N4CCC[C@H]4C(=O)NCCCNC(=O)Cc4ccc(C(=N)N)cc4)c3Cl)c2n1` [Example 8, 1-[[3-[(2,4-Dimethylquinolin-8-yl)oxymethyl]-2,4-dichlorophenyl]sulfonyl]-N-[-[[2-[4(aminoiminomethyl)phenyl]-1-oxoethyl]amino]propyl]-2(S)-pyrrolidinecarboxamide dihydrochloride] belongs 97.5%. To `Cc1cc(C)c2cccc(OCc3c(Cl)ccc(S(=O)(=O)N4CCC[C@H]4C(=O)NCCCCNC(=O)c4ccc(C(=N)N)cc4)c3Cl)c2n1` [Example 19, 1-[[3-[(2,4-Dimethylquinolin-8-yloxymethyl]-2,4-dichlorophenyl]sulfonyl]-N-[4-[[4-(aminoiminomethyl)phenyl]carbonylamino]butyl]-2(S)-pyrrolidinecarboxamidedihydrochloride] belongs 98%; to `Cc1cc(C)c2cccc(OCc3c(Cl)ccc(S(=O)(=O)N4CCC[C@H]4C(=O)NCCCCCNC(=O)c4ccc(C(=N)N)cc4)c3Cl)c2n1` [Example 21, 1-[[3-[(2,4-Dimethylquinolin-8-yl)oxymethyl]-2,4-dichlorophenyl]sulfonyl]-N-[5-[[4-(aminoiminomethyl)phenyl]carbonylamino]pentyl]-2(S)-pyrrolidinecarboxamide dihydrochloride], 100%; to `Cc1cc(C)c2cccc(OCc3c(Cl)ccc(S(=O)(=O)N4CCC[C@H]4C(=O)NCCNC(=O)COc4ccc(C(=N)N)cc4)c3Cl)c2n1` [Example 4, 1-[[3-[(2,4-Dimethylquinolin-8-yl)oxymethyl]-2,4-dichlorophenyl]sulfonyl]-N-[2-[[2-[4(aminoiminomethyl)phenoxy]-1-oxoethyl]amino]ethyl]-2(S)-pyrrolidinecarboxamide dihydrochloride], 95.5%. To `Cc1cc(C)c2cccc(OCc3c(Cl)ccc(S(=O)(=O)N4CCC[C@H]4C(=O)NCCNC(=O)c4ccc(C(=N)N)cc4)c3Cl)c2n1` [Example 2, 1-[[3-[(2,4-Dimethylquinolin-8-yl)oxymethyl]-2,4-dichlorophenyl]sulfonyl]-N-[2-[[4-(aminoiminomethyl)phenyl]carbonylamino]ethyl]-2(S)-pyrrolidine-carboxamide dihydrochloride] belongs 92%; to `CCN(CCCNC(=O)[C@@H]1CCCN1S(=O)(=O)c1ccc(Cl)c(COc2cccc3c(C)cc(C)nc23)c1Cl)C(=O)c1ccc(C(=N)N)cc1` [Example 14, 1-[[3-[(2,4-Dimethylquinolin-8-yl)oxymethyl]-2,4-dichlorophenyl]sulfonyl]-N-3-[[ethyl]-[[4-(aminoiminomethyl)phenyl]carbonyl]amino]propyl]-2(S)-pyrrolidine carboxamide dihydrochloride], 97%.

For orientation: inhibition means the change of the read-out against control, counted positive when it falls.

For the origin of these results see US6063791A, “N-benzenesulfonyl-L-proline derivatives, method for preparing and therapeutic use” (Fournier Industrie et Sante, priority 1996, dated 2000).
